This is an account of results in patent US20060264411A1, “Control of biofilm formation” (priority 2005, published 2006).

SMILES strings stand for the structures.

Series [1] can be described thus: Bladder concentrations in rats after oral dose. To be noted: rat, in vivo, po, 50 mg/kg. How it is done: Pharmacokinetic studies of asiatic acid and madecassic acid in rats were performed separately. Asiatic acid and madecassic acid were evaluated at 50 mg/kg (oral). Two animals were assigned to each group. Prior to dosing, a baseline blood sample was taken from each animal. At time zero, asiatic acid and madecassic acid, a single bolus dose in 50% Labrasol (Gattefosse) was given to each animal. Bladders were analyzed at 24 hours. Concentrations of both asiatic acid and madecassic acid in the bladder were approximately 30 μg/g at 24 hours.

The next series has as its system S. sobrinus 6715. Description: Biofilm growth inhibition in polycarbonate tubes. It is filed as cell-based. To be noted: Streptococcus sobrinus, 40 μg/mL.
Series [2] concerns P. aeruginosa strain PAO1. Description: Rotating disk reactor (RDR) biofilm test with and without tobramycin. It counts as cell-based, Pseudomonas aeruginosa. The settings on record: for Test Compound, log10 CFU: no tobramycin; for Tobramycin and Test Compound, log10 CFU: then tobramycin 100 μg/ml 2 h. How it is done: Biofilm formation of P. aeruginosa was evaluated using a standardized biofilm method with a rotating disk reactor (RDR). This method provides a model resembling the formation of biofilms in cystic fibrosis patients. The rotating disk reactor consists of a one-liter glass beaker fitted with a drain spout. The bottom of the vessel contains a magnetically driven rotor with six 1.27 cm diameter coupons constructed from polystyrene. The rotor consists of a star-head magnetic stir bar upon which a disk was affixed to hold the coupons. The vessel with the stir bar was placed on a stir plate and rotated to provide fluid shear. A nutrient solution (AB Trace Medium with 0.3 mM glucose, see Table 1 below for composition) was added through a stopper in the top of the reactor at a flow rate of 5 ml/min. The reactor volume was approximately 180 ml and varied slightly between reactors depending on the placement of the drain spout and the rotational speed of the rotor. At a volume of 180 ml, the residence time of the reactors was 36 minutes. The reactors were operated at room temperature (c.a. 26° C.).
For each test, two RDRs were operated in parallel with one receiving test compound and the other serving as an untreated control. The RDRs were sterilized by autoclave, then filled with sterile medium and inoculated with P. aeruginosa strain PAO1. The reactors were then incubated at room temperature in batch mode (no medium flow) for a period of 24 hours, after which the flow was initiated for a further 24 hour incubation. Test compounds were dissolved in 10 ml ethanol to achieve a concentration of 1.8 mg/ml. After the 48 hours of biofilm development described above, the 10 ml of ethanol containing the test compounds were added to the reactor to achieve a final concentration of approximately 50, 100, or 200 μg/ml. Control reactors received 10 ml of ethanol. The reactors were then incubated for an additional 24 hours in batch (no flow) mode. After this incubation period, the six coupons were removed from each reactor and placed in 12-well polystyrene tissue culture plates with wells containing either 2 ml of a 100 μg/ml tobramycin solution or 2 ml of phosphate-buffered saline (PBS). These plates were incubated at room temperature for two hours. The coupons were then rinsed by three transfers to plates containing 2 ml of fresh PBS. For each two RDR reactors run in parallel, four sets of three coupons were obtained: one set with no test compound treatment and no tobramycin treatment, one set with no test compound treatment and tobramycin treatment, one set treated with a test compound treatment and no tobramycin treatment, and one set treated with a test compound treatment and tobramycin. After rinsing, one coupon of each set of three was stained with a LIVE/DEAD® BacLight™ Bacterial Viability Kit (Molecular Probes, Eugene Oreg.) and imaged using epifluorescent microscopy. The remaining two coupons were placed in 10 ml of PBS and sonicated for five minutes to remove and disperse biofilm cells. The resulting bacterial suspensions were then serially diluted in PBS and plated on tryptic soy agar plates for enumeration of culturable bacteria. The plates were incubated for 24 hours at 37° C. before colony forming units (CFU) were determined.
The results are averages from experiments performed on three separate days for each test compound. The values reported are as log10 CFU.

Series [3] relates to Haemophilus influenzae (ATCC 10211). The series can be described thus: Antibacterial effect (NCCLS MIC). It is filed as cell-based. To be noted: ATCC10211, studied at 64 μg/mL, read-out: MIC (minimal inhibitory concentration). As for the experimental part: (§1) Using the appropriate NCCLS procedures, the antibacterial effect of asiatic acid on Haemophilus influenzae (ATCC 10211), E. coli (ATCC 25922), and P. aeruginosa (ATCC 27853) was studied at 64 μg/mL.

The next series deals with E. coli (ATCC 25922). Description: Antibacterial effect (NCCLS MIC). To be noted: Escherichia coli, ATCC25922, studied at 64 μg/mL, read-out: MIC (minimal inhibitory concentration). It counts as cell-based. How it is done:
as §1

Series [4] concerns E. coli clinical strain UTI89. Description: Invasion of E. coli UTI89 into bladder epithelial cells. It counts as cell-based. To be noted: 40 μg/ml; 60 minutes; separate experiments (n=4-7). As for the experimental part: The effect of test compounds on bacterial invasion of E. coli clinical strain UTI89 was studied as described in Elsinghorst, et al. 1994, Methods Enzymol, 236:405-420; and Martinez et al., 2000, EMBO J., 19:2803-2812. Epithelial bladder cells were grown in plates. Asiatic acid, corosolic acid, or ursolic acid were added at concentrations of 10 μg/ml, 20 μg/ml, or 40 μg/ml to bacteria and epithelial cells for approximately 5, 15, 30, or 60 minutes with approximately 10^7 CFU of E. coli. Binding was assessed at time zero and invasion was assessed at approximately 5, 15, 30, or 60 minutes from completing the mixture of compound, bacteria, and epithelial cells. As a control ethanol was added to cells to a final concentration of 0.1%. The effect of bacterial viability and bacterial adherence during the infection period was evaluated according to the methods described in Martinez et al., 2000, EMBO J., 19:2803-2812.

The test system of series [5] is Clinical isolates of P. aeruginosa from cystic fibrosis patients. The series can be described thus: Detachment of mature biofilms on peg lids, crystal violet. It counts as cell-based. To be noted: 5 ug/ml; about 40 hours; eighteen clinical isolates. As for the experimental part: Clinical isolates of P. aeruginosa from cystic fibrosis patients were passed twice on tryptic soy agar with 5% sheep blood after retrieval from −80° C. and then grown overnight in CAMHB. After dilution of a culture to 0.5 McFarland in broth medium, 100 μl was transferred in triplicate to wells of a flat-bottom 96-well microtiter plate. Bacterial biofilms were formed by immersing the pegs of a modified polystyrene microtiter lid into this biofilm growth plate, followed by incubation at 37° C. for 20 hours with no movement.
Peg lids were rinsed three times in sterile water, placed onto flat-bottom microtiter plates containing biofilm inhibitors at 5 ug/ml in 100 μl of CAMHB per well and incubated for approximately 40 hours at 37° C.
Pegs were rinsed, placed in a 0.1% (wt/vol) crystal violet solution for 15 min, rinsed again, and dried for several hours. To solubilize adsorbed crystal violet, pegs were incubated in 95% ethanol (150 μl per well of a flat-bottom microtiter plate) for 15 min. The absorbance was read at 590 nm on a plate reader. The wells containing asiatic acid were compared to negative controls. Negative controls were prepared as stated above but without asiatic acid.

In the case of `C[C@H]1[C@H](C)CC[C@]2(C(=O)O)CC[C@]3(C)C(=CC[C@@H]4[C@@]5(C)C[C@@H](O)[C@H](O)[C@@](C)(CO)[C@@H]5CC[C@]43C)[C@H]12` [Asiatic acid, asiatic acid], the concentration at 24 h in series [1] was about 30000 ng/g. In the series with S. sobrinus 6715, this molecule yielded an inhibition at 40 µg/mL of over 75%. In addition, the “Test Compound, log10 CFU” value in series [2] (test compound 50 μg/ml 24 h) is on record as 7.7 log10 CFU; in series [2] (test compound 100 μg/ml 24 h), 7.7 log10 CFU; in series [2] (test compound 200 μg/ml 24 h), 7.5 log10 CFU. The “Tobramycin and Test Compound, log10 CFU” value in series [2] (test compound 50 μg/ml 24 h) stood at 5.3 log10 CFU; in series [2] (test compound 100 μg/ml 24 h) it was 5.5 log10 CFU; in series [2] (test compound 200 μg/ml 24 h), 5.2 log10 CFU. The MIC (in series [3]; in the series with E. coli (ATCC 25922)) was over 64 µg/mL each time. The “reduced invasion of E. coli into bladder epithelial cells as compared to the controls” value in series [4] was 87%. The “average detachment of mature biofilms compared to negative controls” value in series [5] is on record as “approximately 50%”.
